Experimental data from US20250313860A1, “EXPRESSION OF EXOGENOUS PROTEINS IN DONOR PLATELETS TREATED WITH LIPID NANOPARTICLES” (THE UNIVERSITY OF BRITISH COLUMBIA, priority 2022, published 2025).

Key:
human platelets = assay: Platelet responsiveness to agonists ADP and thrombin (CD62P flow cytometry); assay type: cell-based; conditions: transfected and control untreated platelets, FIG. 3A
Description: (§1) Platelets untreated or treated with CL4H6 POPC LNP were activated after 2 h with 0.1 U mL-1 thrombin from human plasma (MilliporeSigma Canada Ltd, Oakville, ON) or 10 μM Chrono-Par® ADP reagent (Chrono-Log, Havertown, PA) in Tyrode's-HEPES buffer pH 7.4 (134 mM NaCl, 2.9 mM KCl, 0.34 mM NaH2PO4, 10 mM HEPES, 5 mM D-glucose). After 4 h LNP treatment, platelets were collected for flow cytometry and the remaining sample was centrifuged at 250×g for 10 min, with the pellet and supernatant fractions collected for luciferase assay.
Platelet responsiveness to agonists ADP or thrombin was measured by flow cytometry staining using PE-conjugated mouse anti-human CD62P labeling, as described in the Materials and Methods.

[1] = test system: platelets transfected with mRNA-LNP; assay: Intracellular and extracellular NanoLuc after agonist activation of transfected platelets; assay type: cell-based, human; conditions: after agonist stimulation of transfected platelets; for intracellular NanoLuc level (cell pellet): FIG. 4D; for extracellular NanoLuc level (supernatant): FIG. 4E
Description: as §1
Platelets were transfected with mRNA-LNP encoding NanoLuc, followed by activation with agonists ADP or thrombin. Intracellular and extracellular protein was separated by centrifugation, and enzymatic activity assays were used to measure exogenous protein levels in both fractions as described in the Materials and Methods.

[2] = test system: platelets transfected with mRNA-LNP; assay: Cycloheximide treatment of mRNA-LNP transfected platelets; assay type: cell-based, human
From the text: Platelets were transfected with mRNA encoding nanoluciferase (NanoLuc) encapsulated in LNP formulation using ALC0315 and DOPC immediately preceding treatment with cycloheximide, followed by enzymatic assays of nanoluciferase activity, and activation by flow cytometry using PE-conjugated mouse anti-human CD62P labeling, as described in the Materials and Methods.

Row | Molecule | increase of CD62P levels by agonist (human platelets) | intracellular NanoLuc level (cell pellet) [1] | extracellular NanoLuc level (supernatant) [1] | exogenous protein synthesis in transfected platelets ([2]; LNP with ALC0315 and DOPC, FIG. 5A) | mRNA-LNP uptake in transfected platelets ([2]; presence or absence of cycloheximide, FIG. 5B)
1 | Nc1ncnc2c1ncn2[C@@H]1O[C@H](COP(=O)(O)OP(=O)(O)O)[C@@H](O)[C@H]1O [ADP] | mildly | unchanged | unchanged | – | –
2 | thrombin | substantially | decreased | decreased | – | –
3 | C[C@@H]1C[C@@H]([C@H](O)CC2CC(=O)NC(=O)C2)C(=O)[C@@H](C)C1 [cycloheximide] | – | – | – | inhibited | no statistically significant effect
